Measured values from paper PMC11200585, “Prospects for Prostate Cancer Chemotherapy: Cytotoxic Evaluation and Mechanistic Insights of Quinolinequinones with ADME/PK Profile” (Biomedicines, 2024).
Counter-ions that a name gives are not always drawn.

What was measured:
DU-145 cells [1] = experiment: Cell cycle assay (flow cytometry, PI); format: cell-based, human; conditions: 24 h, highest concentrations
Procedure: Cells were subjected to AQQ1 and DOXO treatments as previously described for apoptosis necrosis analysis. For cell cycle analysis, a cell population of 1 × 10^6 was collected, centrifuged, and the supernatant was removed. The resulting cellular pellet was re-suspended in 70% cold ethanol in PBS. Subsequently, the cells underwent a single PBS wash, followed by incubation in PBS containing […] PI (Sigma-Aldrich, St. Louis, MO, USA) and 2 mg/mL DNase-free RNase-A (Affymetrix, Inc., Santa Barbara, CA, USA) for 30 min at room temperature in a light-protected environment. Analysis was performed using the BD FACS Calibur Flow Cytometry System, and the BD CellQuest Pro Software software (version 5.1, Becton Dickinson, USA) was employed to determine cell cycle phase distributions in comparison to the control group.

HCT-116 cells = experiment: MTT assay; format: cell-based; conditions: Homo sapiens, 24 h, mean ± SEM
Procedure: (§1) For the MTT assay, DU-145, MDA-MB-231, HCT-116, and HUVEC cells (American Type Culture Collection) were seeded at a concentration of 1 × 10^4 cells per well in 96-well plates and allowed to incubate overnight, ensuring proper adherence. Subsequently, a series of concentrations for both AQQ1 and AQQ2 (ranging from 1 to 100 µM) were added to the culture medium with a final concentration of 1% DMSO, and cells were subjected to an additional 24 h incubation period. The control group only received 1% DMSO (Biomatik, Cambridge, ON, Canada). To establish a baseline for comparison, DOXO (Saba, İstanbul, Turkey), a known chemotherapeutic agent, was administered at equivalent concentrations. Following the incubation period, MTT (3-(4,5-dimethylthiazol-2-yl)-2,5-diphenyltetrazolium bromide) (Biomatik, Canada) assay was carried out to assess cell viability. Finally, the absorbance was quantified at 590 nm using a BioTek Epoc plate reader (Biotek, Winooski, VT, USA). The derived data were analysed using GraphPad Prism 8 software to calculate the inhibitory concentration 50 (IC50) values of the test compounds.

MDA-MB-231 cells = experiment: MTT assay; format: cell-based; conditions: Homo sapiens, 24 h, mean ± SEM
Procedure: as §1

DU-145 cells [2] = experiment: MTT assay; format: cell-based; conditions: Homo sapiens, 24 h, mean ± SEM
Procedure: as §1

[3] = tested on: Human Umbilical Vein Endothelial Cells (HUVEC); experiment: MTT assay; format: cell-based; conditions: 24 h, mean ± SEM
Procedure: as §1

IC50 (HCT-116 cells): 24.4 ± 6.9 µM
IC50 (MDA-MB-231 cells): 59.1 ± 9.06 µM
IC50 (DU-145 cells [2]): < 100 µM
Structure (SMILES): COc1cccc2c1C(=O)c1c(O)c3c(c(O)c1C2=O)C[C@@](O)(C(=O)CO)C[C@@H]3O[C@H]1C[C@H](N)[C@H](O)[C@H](C)O1 [DOXO, Doxorubicin HCl, reference compound]
population of cells in the G0/G1 phase (DU-145 cells [1]): showed a similar effect on DU-145 cells
IC50 [3]: 57.5 ± 9.82 µM
